# Results from PubChem BioAssay (NCI).
#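 Five concentrations, 48 hours, 96-well plates. The concentration for full growth arrest is given as TGI.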
# Experiments:
# Assay in all cases: NCI anticancer screen, dose series, 48 h
# HOP-62 NSCLC = tested on: HOP-62 NSCLC
# RXF 393 renal = tested on: RXF 393 renal
# SF-268 CNS = tested on: SF-268 CNS
# SK-OV-3 ovarian = tested on: SK-OV-3 ovarian
# EKVX NSCLC = tested on: EKVX NSCLC
# RPMI-8226 leukemia = tested on: RPMI-8226 leukemia
# MDA-MB-231 breast = tested on: MDA-MB-231 breast
# OVCAR-4 ovarian = tested on: OVCAR-4 ovarian
# MOLT-4 leukemia = tested on: MOLT-4 leukemia
# SN12C renal = tested on: SN12C renal
# UACC-62 melanoma = tested on: UACC-62 melanoma
# NCI-H23 lung = tested on: NCI-H23 lung
# M14 melanoma = tested on: M14 melanoma
# TK-10 renal = tested on: TK-10 renal
# SNB-75 CNS = tested on: SNB-75 CNS
# SNB-19 CNS = tested on: SNB-19 CNS
# HCT-15 colon = tested on: HCT-15 colon
# KM12 colon = tested on: KM12 colon
# SK-MEL-2 melanoma = tested on: SK-MEL-2 melanoma
# ACHN renal = tested on: ACHN renal
# OVCAR-3 ovarian = tested on: OVCAR-3 ovarian
# NCI/ADR-RES ovarian = tested on: NCI/ADR-RES ovarian
# MDA-MB-435 = tested on: MDA-MB-435
# HCC-2998 colon = tested on: HCC-2998 colon
# COLO 205 colon = tested on: COLO 205 colon
# MDA-N = tested on: MDA-N
# SF-539 CNS = tested on: SF-539 CNS
# NCI-H460 lung = tested on: NCI-H460 lung
# NCI-H522 lung = tested on: NCI-H522 lung
# IGROV1 ovarian = tested on: IGROV1 ovarian
# SR leukemia = tested on: SR leukemia
# SF-295 CNS = tested on: SF-295 CNS
# K-562 leukemia = tested on: K-562 leukemia
# HL-60(TB) leukemia = tested on: HL-60(TB) leukemia
# U251 CNS = tested on: U251 CNS
# LOX IMVI melanoma = tested on: LOX IMVI melanoma
# A549 NSCLC = tested on: A549 NSCLC
# OVCAR-5 ovarian = tested on: OVCAR-5 ovarian
# HT29 colon = tested on: HT29 colon
# BT-549 breast = tested on: BT-549 breast
# SW-620 colon = tested on: SW-620 colon
# NCI-H226 lung = tested on: NCI-H226 lung
# MALME-3M melanoma = tested on: MALME-3M melanoma
# DU-145 prostate = tested on: DU-145 prostate
# MCF7 breast = tested on: MCF7 breast
# SK-MEL-28 melanoma = tested on: SK-MEL-28 melanoma
# T-47D breast = tested on: T-47D breast
# PC-3 prostate = tested on: PC-3 prostate
# UO-31 renal = tested on: UO-31 renal
# 786-0 renal = tested on: 786-0 renal
# HS 578T breast = tested on: HS 578T breast
# OVCAR-8 ovarian = tested on: OVCAR-8 ovarian
# A498 renal = tested on: A498 renal
# CCRF-CEM leukemia = tested on: CCRF-CEM leukemia
# HOP-92 NSCLC = tested on: HOP-92 NSCLC
# UACC-257 melanoma = tested on: UACC-257 melanoma
# HCT-116 colon = tested on: HCT-116 colon
# SK-MEL-5 melanoma = tested on: SK-MEL-5 melanoma
compound,measurement,setting,value
Cc1c(N=Nc2ccccc2)c(-c2ccccc2)n(C2OC(CO)C(O)C(O)C2O)c(=S)c1C#N (stereo unspecified),TGI,HOP-62 NSCLC,23.2 µM
same,TGI,RXF 393 renal,10.3 µM
same,TGI,SF-268 CNS,37 µM
same,TGI,SK-OV-3 ovarian,23 µM
same,TGI,EKVX NSCLC,42.5 µM
same,TGI,RPMI-8226 leukemia,> 100 µM
same,TGI,MDA-MB-231 breast,44.4 µM
same,TGI,OVCAR-4 ovarian,26.1 µM
same,TGI,MOLT-4 leukemia,24.5 µM
same,TGI,SN12C renal,28.5 µM
same,TGI,UACC-62 melanoma,13 µM
same,TGI,NCI-H23 lung,16.2 µM
same,TGI,M14 melanoma,19.3 µM
same,TGI,TK-10 renal,26.9 µM
same,TGI,SNB-75 CNS,> 100 µM
same,TGI,SNB-19 CNS,27.8 µM
same,TGI,HCT-15 colon,25.5 µM
same,TGI,KM12 colon,11.6 µM
same,TGI,SK-MEL-2 melanoma,21.8 µM
same,TGI,ACHN renal,18.8 µM
same,TGI,OVCAR-3 ovarian,18 µM
same,TGI,NCI/ADR-RES ovarian,46.6 µM
same,TGI,MDA-MB-435,19.5 µM
same,TGI,HCC-2998 colon,30.9 µM
same,TGI,COLO 205 colon,31.3 µM
same,TGI,MDA-N,20.1 µM
same,TGI,SF-539 CNS,20.6 µM
same,TGI,NCI-H460 lung,97.6 µM
same,TGI,NCI-H522 lung,14.1 µM
same,TGI,IGROV1 ovarian,22.5 µM
same,TGI,SR leukemia,> 100 µM
same,TGI,SF-295 CNS,55.8 µM
same,TGI,K-562 leukemia,> 100 µM
same,TGI,HL-60(TB) leukemia,> 100 µM
same,TGI,U251 CNS,17.7 µM
same,TGI,LOX IMVI melanoma,12.4 µM
same,TGI,A549 NSCLC,21.5 µM
same,TGI,OVCAR-5 ovarian,28.9 µM
same,TGI,HT29 colon,29.7 µM
same,TGI,BT-549 breast,> 100 µM
same,TGI,SW-620 colon,24.2 µM
same,TGI,NCI-H226 lung,28.5 µM
same,TGI,MALME-3M melanoma,30.6 µM
same,TGI,DU-145 prostate,41.7 µM
same,TGI,MCF7 breast,17.1 µM
same,TGI,SK-MEL-28 melanoma,19.6 µM
same,TGI,T-47D breast,4.74 µM
same,TGI,PC-3 prostate,15.6 µM
same,TGI,UO-31 renal,39.4 µM
same,TGI,786-0 renal,18.8 µM
same,TGI,HS 578T breast,> 100 µM
same,TGI,OVCAR-8 ovarian,> 100 µM
same,TGI,A498 renal,32.5 µM
C[C@]12CC[C@H]3[C@@H](CCC4=CC(=O)CC[C@@H]43)[C@@H]1CC[C@]2(O)C(N)=O,TGI,HOP-62 NSCLC,> 100 µM
same,TGI,RXF 393 renal,> 100 µM
same,TGI,SF-268 CNS,> 100 µM
same,TGI,SK-OV-3 ovarian,> 100 µM
same,TGI,EKVX NSCLC,> 100 µM
same,TGI,RPMI-8226 leukemia,> 100 µM
same,TGI,CCRF-CEM leukemia,> 100 µM
same,TGI,MDA-MB-231 breast,> 100 µM
same,TGI,HOP-92 NSCLC,> 100 µM
same,TGI,OVCAR-4 ovarian,> 100 µM
same,TGI,MOLT-4 leukemia,> 100 µM
same,TGI,UACC-257 melanoma,> 100 µM
same,TGI,SN12C renal,> 100 µM
same,TGI,UACC-62 melanoma,> 100 µM
same,TGI,NCI-H23 lung,> 100 µM
same,TGI,M14 melanoma,> 100 µM
same,TGI,HCT-116 colon,> 100 µM
same,TGI,TK-10 renal,> 100 µM
same,TGI,SNB-75 CNS,> 100 µM
same,TGI,SNB-19 CNS,> 100 µM
same,TGI,HCT-15 colon,> 100 µM
same,TGI,KM12 colon,> 100 µM
same,TGI,SK-MEL-2 melanoma,> 100 µM
same,TGI,ACHN renal,> 100 µM
same,TGI,OVCAR-3 ovarian,> 100 µM
same,TGI,NCI/ADR-RES ovarian,> 100 µM
same,TGI,MDA-MB-435,> 100 µM
same,TGI,HCC-2998 colon,> 100 µM
same,TGI,COLO 205 colon,> 100 µM
same,TGI,MDA-N,> 100 µM
same,TGI,SF-539 CNS,> 100 µM
same,TGI,NCI-H460 lung,> 100 µM
same,TGI,NCI-H522 lung,> 100 µM
same,TGI,IGROV1 ovarian,> 100 µM
same,TGI,SR leukemia,> 100 µM
same,TGI,SF-295 CNS,> 100 µM
same,TGI,K-562 leukemia,> 100 µM
same,TGI,HL-60(TB) leukemia,> 100 µM
same,TGI,U251 CNS,> 100 µM
same,TGI,LOX IMVI melanoma,> 100 µM
same,TGI,A549 NSCLC,> 100 µM
same,TGI,OVCAR-5 ovarian,> 100 µM
same,TGI,HT29 colon,> 100 µM
same,TGI,BT-549 breast,> 100 µM
same,TGI,SW-620 colon,> 100 µM
same,TGI,NCI-H226 lung,> 100 µM
same,TGI,MALME-3M melanoma,> 100 µM
same,TGI,DU-145 prostate,> 100 µM
same,TGI,MCF7 breast,> 100 µM
same,TGI,SK-MEL-28 melanoma,> 100 µM
same,TGI,T-47D breast,> 100 µM
same,TGI,PC-3 prostate,> 100 µM
same,TGI,UO-31 renal,> 100 µM
same,TGI,SK-MEL-5 melanoma,> 100 µM
same,TGI,786-0 renal,> 100 µM
same,TGI,HS 578T breast,> 100 µM
same,TGI,OVCAR-8 ovarian,> 100 µM
same,TGI,A498 renal,> 100 µM
